# From US20230413824A1, “AGROCHEMICAL COMPOSITION COMPRISING 3-SUBSTITUTED PHENYLAMIDINE COMPOUNDS AND USE THEREOF” (PI INDUSTRIES LIMITED, priority 2020, published 2023)
# Where two headings read alike, the source gives them in different places.
# Columns and labels:
# Assay type in all cases: in vivo
# Alternaria solani = Alternaria solani test in tomato (preventive, glasshouse); details: for pest or weed control at 1 ppm / pest or weed control at 5 ppm / pest or weed control at 20 ppm / pest or weed control at 0.05 ppm / pest or weed control at 0.1 ppm: Alternaria solani
# Phakopsora pachyrhizi = Phakopsora pachyrhizi test in soybean (preventive, glasshouse); details: single compound; for pest or weed control at 0.0001 ppm / pest or weed control at 0.001 ppm / pest or weed control at 0.01 ppm: preventive spray on soybean
# Pyricularia oryzae = experiment: whole plant or invertebrate; details: for Observed Efficacy: single compound, preventive spray, rice
# Septoria nodorum = experiment: Parastagonospora nodorum/Septoria nodorum/Stagnospora nodorum test in wheat (preventive, glasshouse); details: single compound
# Experimental: The single compounds or compound combinations were dissolved in 2% DMSO/Acetone and then mixed with water containing emulsifier to a calibrated spray volume of 50 mL. The spray solutions were poured into spray bottles for further applications.
# To test the preventive activity of compounds, healthy young wheat plants, raised in the greenhouse, were sprayed with the single compound or mixture preparation at the stated application rates inside the spray cabinets using hollow cone nozzles. One day after treatment, the plants were inoculated with a suspension containing 2.8×10^6 Stagnospora nodorum inoculum. The inoculated plants were then kept in a greenhouse chamber at 22-25° C. temperature and 90-100% relative humidity for disease expression.
# A visual assessment of the performance of the compounds and respective compound combinations was carried out by rating the disease severity (0-100% scale) on treated plants 3, 7 and 10 days after application. Efficacy (% control) of the compounds was calculated by comparing the disease rating in the treatment with the one of the untreated control. The compounds were also assessed for their plant compatibility by recording symptoms like necrosis, chlorosis & stunting. The results are shown for the compound of formula (I-1) to (I-5) in Table E1-E5.
# Botrytis cinerea = Botrytis cinerea test in tomato (preventive, glasshouse); details: single compound; for pest or weed control at 1 ppm / pest or weed control at 5 ppm / pest or weed control at 20 ppm: Botrytis cinerea; for pest or weed control at 1 ppm: Conc. 1 ppm; for pest or weed control at 5 ppm: Conc. 5 ppm; for pest or weed control at 20 ppm: Conc. 20 ppm
# Erysiphe cichoracearum = Erysiphe cichoracearum test in cucumber (preventive, glasshouse); details: single compound
# [1] = Phakopsora pachyrhizi, read-out: Observed Efficacy (%)
# [2] = Pyricularia oryzae, read-out: Observed Efficacy
# [3] = Parastagonospora nodorum, read-out: Observed Efficacy (%)
# [4] = preventive spray on tomato, % control vs untreated, read-out: Observed Efficacy (%)
# [5] = Table B3, single compound, Conc. 0.1 ppm, preventive
# [6] = Conc. 0.05 ppm, soybean, preventive, Table D5
structure (smiles),measurement,setting,value
"CCN(C)C=Nc1cc(C)cc(Cc2ccc(C)cc2)c1C [Compound (I-2), N′-(2,5-dimethyl-3-(4-methylbenzyl)phenyl)-N-ethyl-N-methylformimidamide]",pest or weed control at 1 ppm,"Alternaria solani; single compound, 1 ppm, preventive spray, read-out: Observed Efficacy (%)",13%
same,pest or weed control at 5 ppm,"Alternaria solani; single compound, 5 ppm, preventive spray, read-out: Observed Efficacy (%)",23%
same,pest or weed control at 20 ppm,"Alternaria solani; single compound, 20 ppm, preventive spray, read-out: Observed Efficacy (%)",33%
same,pest or weed control at 0.0001 ppm,Phakopsora pachyrhizi; [1],47%
same,pest or weed control at 0.001 ppm,Phakopsora pachyrhizi; [1],57%
same,pest or weed control at 0.01 ppm,Phakopsora pachyrhizi; [1],68%
same,pest or weed control at 1 ppm,Pyricularia oryzae; [2],13%
same,pest or weed control at 5 ppm,Pyricularia oryzae; [2],23%
same,pest or weed control at 20 ppm,Pyricularia oryzae; [2],37%
same,pest or weed control at 1 ppm,Septoria nodorum; [3],13%
same,pest or weed control at 5 ppm,Septoria nodorum; [3],23%
same,pest or weed control at 20 ppm,Septoria nodorum; [3],33%
same,pest or weed control at 1 ppm,Botrytis cinerea; [4],23%
same,pest or weed control at 5 ppm,Botrytis cinerea; [4],33%
same,pest or weed control at 20 ppm,Botrytis cinerea; [4],53%
"CCN(C)C=Nc1cc(Cl)cc(Cc2cccc(C)c2)c1C [Compound (I-1), N′-(5-chloro-2-methyl-3-(3-methylbenzyl)phenyl)-N-ethyl-N-methylformimidamide]",pest or weed control at 1 ppm,"Erysiphe cichoracearum; Golovinomyces cichoracearum, 1 ppm, cucumber, preventive, read-out: Observed Efficacy (%)",13%
same,pest or weed control at 5 ppm,"Erysiphe cichoracearum; Golovinomyces cichoracearum, 5 ppm, cucumber, preventive, read-out: Observed Efficacy (%)",33%
same,pest or weed control at 20 ppm,"Erysiphe cichoracearum; Golovinomyces cichoracearum, 20 ppm, cucumber, preventive, read-out: Observed Efficacy (%)",57%
same,pest or weed control at 1 ppm,"Alternaria solani; single compound, Conc. 1 ppm, preventive spray, read-out: Observed Efficacy",20%
same,pest or weed control at 5 ppm,"Alternaria solani; single compound, Conc. 5 ppm, preventive spray, read-out: Observed Efficacy",27%
same,pest or weed control at 20 ppm,"Alternaria solani; single compound, Conc. 20 ppm, preventive spray, read-out: Observed Efficacy",40%
same,pest or weed control at 0.0001 ppm,Phakopsora pachyrhizi; [1],40%
same,pest or weed control at 0.001 ppm,Phakopsora pachyrhizi; [1],50%
same,pest or weed control at 0.01 ppm,Phakopsora pachyrhizi; [1],62%
same,pest or weed control at 1 ppm,Pyricularia oryzae; [2],17%
same,pest or weed control at 5 ppm,Pyricularia oryzae; [2],27%
same,pest or weed control at 20 ppm,Pyricularia oryzae; [2],37%
same,pest or weed control at 1 ppm,Septoria nodorum; [3],17%
same,pest or weed control at 5 ppm,Septoria nodorum; [3],20%
same,pest or weed control at 20 ppm,Septoria nodorum; [3],43%
same,pest or weed control at 1 ppm,Botrytis cinerea; [4],20%
same,pest or weed control at 5 ppm,Botrytis cinerea; [4],27%
same,pest or weed control at 20 ppm,Botrytis cinerea; [4],47%
"CNC(=O)/C(=N/OC)c1ccccc1Oc1ccccc1 [Metominostrobin, metominostrobin]",pest or weed control at 0.05 ppm,"Erysiphe cichoracearum; Golovinomyces cichoracearum, 0.05 ppm, cucumber, preventive, read-out: Observed Efficacy (%)",14%
same,pest or weed control at 0.1 ppm,"Erysiphe cichoracearum; Golovinomyces cichoracearum, 0.1 ppm, cucumber, preventive, read-out: Observed Efficacy (%)",57%
same,Observed Efficacy (%),"Erysiphe cichoracearum; 0.05 ppm, preventive spray on cucumber",14%
same,pest or weed control at 0.05 ppm,"Alternaria solani; single compound, 0.05 ppm, preventive spray, read-out: Observed Efficacy (%)",26%
same,pest or weed control at 0.1 ppm,"Alternaria solani; single compound, 0.1 ppm, preventive spray, read-out: Observed Efficacy (%)",31%
same,pest or weed control at 0.05 ppm,"Alternaria solani; single compound, Conc. 0.05 ppm, preventive spray, read-out: Observed Efficacy",26%
same,pest or weed control at 0.1 ppm,"Alternaria solani; single compound, Conc. 0.1 ppm, preventive spray, read-out: Observed Efficacy",31%
same,Observed Efficacy (%),Alternaria solani; [5],31%
same,Observed Efficacy (%),"Alternaria solani; Table B4, single compound, Conc. 0.05 ppm, preventive",26%
same,Observed Efficacy (%),"Alternaria solani; Table B4, single compound, Conc. 0.1 ppm, preventive",31%
same,Observed Efficacy (%),"Alternaria solani; single compound, 0.05 ppm, preventive",26%
same,Observed Efficacy (%),"Alternaria solani; single compound, 0.1 ppm, preventive",31%
same,pest or weed control at 0.05 ppm,"Phakopsora pachyrhizi; Phakopsora pachyrhizi, Conc. 0.05 ppm, soybean, preventive, Table D4, read-out: Observed Efficacy (%)",45%
same,pest or weed control at 0.1 ppm,"Phakopsora pachyrhizi; Phakopsora pachyrhizi, Conc. 0.1 ppm, soybean, preventive, Table D5, read-out: Observed Efficacy (%)",56%
same,Observed Efficacy (%),Phakopsora pachyrhizi; [6],45%
same,pest or weed control at 0.05 ppm,Pyricularia oryzae; [2],17%
same,pest or weed control at 0.1 ppm,Pyricularia oryzae; [2],33%
same,pest or weed control at 0.05 ppm,"Septoria nodorum; Parastagonospora nodorum, 0.05 ppm, read-out: Observed Efficacy (%)",6%
same,pest or weed control at 0.1 ppm,"Septoria nodorum; Parastagonospora nodorum, 0.1 ppm, read-out: Observed Efficacy (%)",12%
same,pest or weed control at 0.1 ppm,"Botrytis cinerea; Table F5, Conc. 0.1 ppm, Botrytis cinerea in tomato, preventive, read-out: Observed Efficacy (%)",40%
"Cn1cc(C(=O)Nc2ccccc2-c2cc(F)c(F)c(F)c2)c(C(F)F)n1 [Fluxapyroxad, fluxapyroxad]",Observed Efficacy (%),"Alternaria solani; Table B3, single compound, Conc. 0.05 ppm, preventive",40%
same,Observed Efficacy (%),Alternaria solani; [5],56%
same,Observed Efficacy (%),"Alternaria solani; single compound, 0.05 ppm, preventive spray",40%
same,Observed Efficacy (%),"Alternaria solani; single compound, 0.1 ppm, preventive spray",56%
same,Observed Efficacy,"Alternaria solani; single compound, Conc. 0.05 ppm, preventive spray",40%
same,Observed Efficacy (%),Phakopsora pachyrhizi; [6],46%
same,Observed Efficacy (%),"Phakopsora pachyrhizi; Conc. 0.1 ppm, soybean, preventive, Table D5",59%
same,Observed Efficacy,Pyricularia oryzae; Conc. 0.05 ppm,24%
same,Observed Efficacy,Pyricularia oryzae; Conc. 0.1 ppm,32%
same,Observed Efficacy (%),Septoria nodorum; 0.05 ppm,3%
same,Observed Efficacy (%),Septoria nodorum; 0.1 ppm,5%
same,Observed Efficacy (%),"Botrytis cinerea; Conc. 0.1 ppm, preventive spray on tomato, % control vs untreated",38%
